The values that follow come from patent US4217357A, “Inhibition of thromboxane synthetase with 3-(imidazol-1-ylalkyl)indoles” (Pfizer Inc., priority 1978, dated 1980).

The target in experiment [1] is T1, prostacyclin synthetase (Sus scrofa, UniProt A0A5G2QT35).
T1 construct: Pig aorta microsomes; from tissue; host or cells: pig aorta microsomes
T1 sequence (A0A5G2QT35 1-497): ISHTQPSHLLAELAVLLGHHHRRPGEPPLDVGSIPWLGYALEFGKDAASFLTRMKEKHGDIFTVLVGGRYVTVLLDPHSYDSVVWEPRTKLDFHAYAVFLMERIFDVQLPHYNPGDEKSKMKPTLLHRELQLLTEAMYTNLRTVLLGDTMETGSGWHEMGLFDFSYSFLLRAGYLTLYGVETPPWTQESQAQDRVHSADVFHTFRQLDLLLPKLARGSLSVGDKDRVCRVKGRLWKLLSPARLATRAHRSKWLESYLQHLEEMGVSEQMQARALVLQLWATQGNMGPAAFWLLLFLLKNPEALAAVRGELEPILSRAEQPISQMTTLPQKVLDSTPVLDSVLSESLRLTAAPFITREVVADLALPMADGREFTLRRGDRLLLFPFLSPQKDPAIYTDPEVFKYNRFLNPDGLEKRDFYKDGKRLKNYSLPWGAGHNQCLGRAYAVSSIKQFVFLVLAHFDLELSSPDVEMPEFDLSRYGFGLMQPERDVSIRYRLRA
Briefly: Prostacyclin (PGI2) synthetase in vitro enzyme assay. The experiment is classed as biochemical. To be noted: pig aorta microsomes, PGH2, 22° C., 30 seconds; 5 min pre-incubation; read-out: Concentration causing 50% inhibition of (3) prostacyclin synthetase.

For experiment [2], the target named is T2, thromboxane synthetase (Homo sapiens, UniProt P24557).
T2 construct: Indomethacin-pretreated human platelet microsomes; from tissue; host or cells: human platelet microsomes
T2 sequence (P24557 1-533): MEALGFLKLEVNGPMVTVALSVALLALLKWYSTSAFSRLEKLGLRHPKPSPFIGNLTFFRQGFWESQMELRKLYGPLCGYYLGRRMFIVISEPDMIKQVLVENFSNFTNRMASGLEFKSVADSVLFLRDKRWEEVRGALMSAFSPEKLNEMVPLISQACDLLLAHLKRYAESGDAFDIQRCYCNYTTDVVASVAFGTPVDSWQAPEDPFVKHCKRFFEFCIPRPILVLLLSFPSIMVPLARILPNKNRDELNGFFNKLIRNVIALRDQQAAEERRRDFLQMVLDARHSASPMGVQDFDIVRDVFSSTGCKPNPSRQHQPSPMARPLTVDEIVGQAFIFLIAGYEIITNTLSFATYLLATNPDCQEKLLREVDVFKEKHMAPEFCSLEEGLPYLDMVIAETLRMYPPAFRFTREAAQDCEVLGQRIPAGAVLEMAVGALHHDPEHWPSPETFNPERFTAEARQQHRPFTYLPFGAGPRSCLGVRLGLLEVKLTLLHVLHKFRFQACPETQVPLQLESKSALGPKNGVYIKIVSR
Briefly: Thromboxane A2 (TxA2) synthetase in vitro enzyme assay. Particulars: for IC50: indomethacin-pretreated human platelet microsomes, PGH2, 0° C., 2 min, 5 min pre-incubation, read-out: Concentration causing 50% inhibition of (1) thromboxane synthetase; for Ratio of (3) to (1): prostacyclin synthetase / thromboxane synthetase 50% inhibition concentrations. The experiment is classed as biochemical. The procedure:
Indomethacin-pretreated human platelet microsomes (Science, 1976, 193, 163) are incubated with PGH2 (produced as described in test No. 1) at 0° C. for a period of two minutes, and aliquots of the reaction mixture are then superfused over two rabbit aorta spirals which are separated by a delay coil (2 min.). The latter is required in order to allow for the selective decay of the more unstable thromboxane A2 (Proc. Nat. Acad. Sci., 1975, 72, 2994), thereby enabling separate measurement of the increased isometric tension due to the TxA2 formed and the PGH2 remaining to take place. The test compound is then pre-incubated with the enzyme for a period of five minutes, and its ability to inhibit the thromboxane synthetase enzyme is measured as its reduction of the TxA2 component of the isometric tension.

Regarding `CC(c1c[nH]c2ccccc12)n1ccnc1` (stereo not drawn) [Example VII, 3-[α-(imidazol-1-yl)ethyl]indole], the IC50 in experiment [1] is above 100000 nM. In experiment [2], the IC50 amounted to 30 nM and the “Ratio of (3) to (1)” value is 3,300.

As to `O=C(c1cccc(C(F)(F)F)c1)n1cc(Cn2ccnc2)c2ccccc21` [Example XLV, 3-(imidazol-1-ylmethyl)-1-(m-trifluoromethylbenzoyl)indole], the IC50 in experiment [2] turned out to be 100 nM.

For the compound `CC(=O)n1cc(Cn2ccnc2)c2ccccc21` [Example XLVI, 1-acetyl-3-(imidazol-1-ylmethyl)indole], the IC50 in experiment [1] is 68000 nM. Further, in experiment [2], the IC50 was 1.2 nM and the “Ratio of (3) to (1)” value is given as 57,000.

As to `Oc1ccc2[nH]cc(Cn3ccnc3)c2c1` [Example XLVII, 5-hydroxy-3-(imidazol-1-ylmethyl)-indole], the results for the IC50 in experiment [1] and in experiment [2] were 8000 nM and 2.3 nM, respectively. For the same compound, the “Ratio of (3) to (1)” value in experiment [2] is 3,500.

Turning to `c1ccc(COc2ccc3[nH]cc(Cn4ccnc4)c3c2)cc1` [Example XXV, 5-benzyloxy-3-(imidazol-1-ylmethyl)indole], the IC50 in experiment [1] worked out at 37000 nM; in experiment [2], 260 nM. In experiment [2], the “Ratio of (3) to (1)” value came to 140.

As to `Cc1ccc2[nH]cc(Cn3ccnc3)c2c1` [XI, 3-(imidazol-1-ylmethyl)-5-methylindole], the IC50 in experiment [1] amounted to 35000 nM. Besides, in experiment [2], the IC50 came out at 58 nM and the “Ratio of (3) to (1)” value is listed as 600.

Regarding `c1ccc2c(Cn3ccnc3)c(C34CC5CC(CC(C5)C3)C4)[nH]c2c1` [XIV], in experiment [1], the IC50 came to 1000 nM. Besides, in experiment [2], the IC50 amounted to 2.5 nM and the “Ratio of (3) to (1)” value stood at 400.

As for `COc1ccc(-c2[nH]c3ccccc3c2Cn2ccnc2)cc1` [XIX, 2-(p-anisyl)-3-(imidazol-1-ylmethyl)indole], in experiment [2], the IC50 came out at 120 nM.

For `O=C(C1CC1)n1cc(Cn2ccnc2)c2ccccc21` [XLI, 1-cyclopropylcarbonyl-3-(imidazol-1-yl-methyl)indole], the IC50 in experiment [2] stood at 4.3 nM.

As for `Cc1ccc(C(=O)n2cc(Cn3ccnc3)c3ccccc32)cc1` [XLII, 3-(imidazol-1-ylmethyl)-1-(p-methylbenzoyl)indole], the IC50 in experiment [1] turned out to be 20000 nM. Moreover, in experiment [2], the IC50 came to 0.41 nM and the “Ratio of (3) to (1)” value is reported as 49,000.

Turning to `COc1ccc(C(=O)n2cc(Cn3ccnc3)c3ccccc32)cc1` [XLIII, 3-(imidazol-1-ylmethyl)-1-(p-methoxybenzoyl)indole], the IC50 in experiment [1] was above 100000 nM. In experiment [2], the IC50 is 1.7 nM and the “Ratio of (3) to (1)” value is given as > 60,000.

Turning to `Cc1ccccc1-c1[nH]c2ccccc2c1Cn1ccnc1` [XV, 3-(imidazol-1-ylmethyl)-2-(o-tolyl)indole], the IC50 is 14000 nM in experiment [1] and 0.014 nM in experiment [2]. In addition, in experiment [2], the “Ratio of (3) to (1)” value was 10^6.

Regarding `COc1ccccc1-c1[nH]c2ccccc2c1Cn1ccnc1` [XVIII, 2-(o-anisyl)-3-(imidazol-1-ylmethyl)indole], the IC50 in experiment [1] was determined as 1400 nM. Further, in experiment [2], the IC50 worked out at 0.38 nM and the “Ratio of (3) to (1)” value was 3,700.

On to `c1ccc(Cc2[nH]c3ccccc3c2Cn2ccnc2)cc1` [XXII, 2-benzyl-3-(imidazol-1-ylmethyl)indole], for which the IC50 in experiment [1] is above 100000 nM. In addition, in experiment [2], the IC50 amounted to 1 nM and the “Ratio of (3) to (1)” value is > 10^5.

With `CN(C)c1ccc2[nH]cc(Cn3ccnc3)c2c1` [XXIII, 5-dimethylamino-3-(imidazol-1-ylmethyl)indole], the IC50 in experiment [1] is above 100000 nM; in experiment [2] it was 64 nM. Moreover, the “Ratio of (3) to (1)” value in experiment [2] is listed as > 1,500.

Turning to `FC(F)(F)c1ccc2c(Cn3ccnc3)c[nH]c2c1` [XXIV, 3-(imidazol-1-ylmethyl)-6-trifluoromethylindole], the IC50 in experiment [1] was determined as 100000 nM. Moreover, in experiment [2], the IC50 amounted to 200 nM and the “Ratio of (3) to (1)” value is recorded as 500.

Regarding `CCn1cc(Cn2ccnc2)c2ccccc21` [XXIX, 1-ethyl-3-(imidazol-1-ylmethyl)indole], the IC50 in experiment [1] was above 100000 nM. Besides, in experiment [2], the IC50 was found to be 1.4 nM and the “Ratio of (3) to (1)” value is on record as > 70,000.

On to `Clc1ccc(-c2[nH]c3ccccc3c2Cn2ccnc2)cc1` [XXI], for which, in experiment [1], the IC50 is above 100000 nM. For the same compound, in experiment [2], the IC50 worked out at 110 nM and the “Ratio of (3) to (1)” value is on record as above 900.

Consider `CC(c1cn(C)c2ccccc12)n1ccnc1` (stereo not drawn) [XXVIII, 3-[α-(imidazol-1-yl)ethyl]-1-methylindole], for which, in experiment [2], the IC50 was determined as 33 nM.

Regarding `CCCn1cc(Cn2ccnc2)c2ccccc21` [XXX, 3-(imidazol-1-ylmethyl)-1-(n-propyl)indole], in experiment [1], the IC50 was above 100000 nM. In addition, in experiment [2], the IC50 turned out to be 4 nM and the “Ratio of (3) to (1)” value is reported as > 2,500.

For the compound `C=CCn1cc(Cn2ccnc2)c2ccccc21` [XXXI, 1-allyl-3-(imidazol-1-ylmethyl)indole], the IC50 in experiment [1] was above 100000 nM. Moreover, in experiment [2], the IC50 came out at 0.058 nM and the “Ratio of (3) to (1)” value was > 1.7×10^6.

Turning to `C=CCn1cc(C(C)n2ccnc2)c2ccccc21` (stereo not drawn) [XXXII, 1-allyl-3-[α-(imidazol-1-yl)ethyl]indole], the IC50 in experiment [2] worked out at 36 nM.

Take `Clc1ccc(Cn2cc(Cn3ccnc3)c3ccccc32)cc1` [XXXIX, 1-(p-chlorobenzyl)-3-(imidazol-1-ylmethyl)indole]: the IC50 in experiment [1] is 18000 nM; in experiment [2], 86 nM. In addition, in experiment [2], the “Ratio of (3) to (1)” value is listed as 210.

Regarding `C=C(C)Cn1cc(Cn2ccnc2)c2ccccc21` [XXXV, 3-(imidazol-1-yl-methyl)-1-methallylindole], in experiment [1], the IC50 stood at 1000 nM. In experiment [2], the IC50 was found to be 3.3 nM and the “Ratio of (3) to (1)” value turned out to be 300.

Turning to `c1ccc2c(c1)c(Cn1ccnc1)cn2CC1CC1` [XXXVI, 1-cyclopropylmethyl-3-(imidazol-1-ylmethyl)indole], in experiment [1], the IC50 turned out to be 100000 nM. In addition, in experiment [2], the IC50 was 11 nM and the “Ratio of (3) to (1)” value was 9,000.

In the case of `COCCn1cc(Cn2ccnc2)c2ccccc21` [XXXVII, 3-(imidazol-1-ylmethyl)-1-(β-methoxyethyl)indole], the IC50 in experiment [1] is above 100000 nM. Further, in experiment [2], the IC50 amounted to 45 nM and the “Ratio of (3) to (1)” value was > 2,200.

Regarding `CN(C)CCn1cc(Cn2ccnc2)c2ccccc21` [XXXVIII, 1-(β-dimethylaminoethyl)-3-(imidazol-1-ylmethyl)indole], the IC50 in experiment [1] was above 100000 nM. In addition, in experiment [2], the IC50 worked out at 26 nM and the “Ratio of (3) to (1)” value is recorded as > 3,800.
